We go through 9 compounds from patent publication US8536173B2, “Tetrahydroquinoxaline urea derivatives as modulators of 11-B-hydroxysteroid dehydrogenase type I” (SANOFI, priority 2009, dated 2013).

For orientation: melting point means the temperature, or range, at which the solid turns liquid.

Structures can show the parent of a compound that is named as a salt.

One data set relates to 11βHSD1 in the eyes. Particulars: healthy volunteers, after seven days of treatment; cited from earlier work.
For the compound `CC1(C)[C@@H](OC(=O)CCC(=O)O)CC[C@]2(C)[C@H]3C(=O)C=C4[C@@H]5C[C@@](C)(C(=O)O)CC[C@]5(C)CC[C@@]4(C)[C@]3(C)CC[C@@H]12` [carbenoxolone], the “IOP is reduced by” value is given as 18%.

System in another data set: not given
Conditions: not given
In the case of `CONC(=O)[C@]12CC3CC(C1)[C@H](NC(=O)N1CCN(c4ccc(N5CCN(S(=O)(=O)C6CC6)CC5)cn4)c4ccccc41)C(C3)C2`, the melting point lay within 125 to 163 °C.
Same read-out and setting: the value for `CC(C)(C)N1CCN(c2ccc(N3CCN(C(=O)N[C@H]4C5CC6CC4C[C@@](CNS(C)(=O)=O)(C6)C5)c4ccccc43)nc2)CC1` (as salt: hydrochloride) was 252 °C; that for `Cc1noc([C@]23CC4CC(C2)[C@H](NC(=O)N2CCN(c5ccc(N6CCN(S(=O)(=O)C7CC7)CC6)cn5)c5ccccc52)C(C4)C3)n1` was 135 °C; that for `NC[C@]12CC3CC(C1)[C@H](NC(=O)N1CCN(c4ccc(N5CCN(S(=O)(=O)C6CC6)CC5)cn4)c4ccccc41)C(C3)C2` (as salt: hydrochloride) was 197 °C.
Still for that read-out and setting: the value for `CC(C)(C)N1CCN(c2ccc(N3CCN(C(=O)N[C@H]4C5CC6CC4C[C@@](Cc4nn[nH]n4)(C6)C5)c4ccccc43)nc2)CC1` was 160 to 170 °C.
With `CC(C)(C)N1CCN(c2ccc(N3CCN(C(=O)N[C@H]4C5CC6CC4C[C@@](NS(C)(=O)=O)(C6)C5)c4ccccc43)nc2)CC1`, the melting point came to 165 °C.
The same measure, in the same setting: the value for `CC(C)(C)N1CCN(c2ccc(N3CCN(C(=O)N[C@H]4C5CC6CC4C[C@@](C(O)C(F)(F)F)(C6)C5)c4ccccc43)nc2)CC1` (stereo partly drawn) was 192 to 196 °C; that for `NC(=O)C[C@]12CC3CC(C1)[C@H](NC(=O)N1CCN(c4ccc(N5CCN(S(=O)(=O)C6CC6)CC5)cn4)c4ccccc41)C(C3)C2` was 120 to 135 °C.
